Source: patent publication US20100209378A1, “Dimethylcyclohexyl Derivatives as Malodor Neutralizers” (GIVAUDAN SA, priority 2007, published 2010)

How the values were obtained:
[1] = Sensory panel (LMS) reduction of synthetic axilla malodor on cotton pads; settings: 100 ul of 1% solution of test compound on pad with 100 ul 0.1% axilla malodor; panel of 20, LMS
Experimental: A 0.1% ethanol solution of synthetic axilla malodor was prepared and a 100 ul aliquot was placed onto cotton pads. 1% solutions of test compounds were prepared and 100 ul dosed on to the axilla treated pads. One pad was left untreated as the control. Each pad was allowed to dry for 15 minutes. The test cotton pads were randomized, and a panel of 20 was used. Each panelist was asked to check a box that represented the strength of the axilla malodor using a Labeled Magnitude Scale (LMS) (Barry G. Green, Pamela Dalton, Beverly Cowart, Greg Shaffer, Krystyna Rankin and Jennifer Higgins. Evaluating the Labeled Magnitude Scale for Measuring Sensations of Taste and Smell. Chemical Senses. Vol. 21, pp 323-334, 1996).
The % reduction of malodor was calculated by: […]
Composition 1 was compared with composition 2 for malodor reduction efficiency using the method described in Example 6.

[2] = Headspace GC/MS malodor reduction, onion oil; settings: method of Example 4; diallyl sulfide and diallyl disulfide measured as standard
Experimental: (§1) A one liter glass headspace collection jar had placed inside it a 25 ml stoppered glass container which contained 0.5 g of a test compound. 10 ul of hexyl amine or allyl disulphide mercaptan as a representative malodor was injected into the headspace jar. This was left for 15 minutes at 25° C. to equilibrate. One ml/minute of the headspace was drawn for one minute through a Tenax™ headspace trap. The Tenax™ trap was removed and thermally desorbed into an Agilent 6890 GC/MS to analyze the quantity of hexyl amine and allyl disulphide mercaptan respectively in the headspace to determine the initial concentration of the hexyl amine malodor/ally disulphide mercaptan. The glass stopper was removed from the container and the test component and the malodor were left in contact for 60 minutes at 25° C. One ml/minute of the headspace was drawn for one minute through a Tenax™ trap and the amount of malodor remaining was determined as above.
(§2) Evaluation of the malodor reduction potential of the compounds of the present invention on malodors of natural garlic oil and onion oil using the methodology described in Example 4 is shown in Table 2. As standard for determining the reduction of onion oil odor the amount of diallyl sulfide and diallyl disulfide were measured, and propyl methyl disulfide and dipropyl disulfide for determining the reduction of garlic oil odor.

[3] = Headspace GC/MS malodor reduction, allyl disulphide; settings: 0.5 g test compound, 10 ul malodor in 1 l headspace jar, 60 minutes contact at 25° C.
Experimental: (§3) Amines are key contributors to many household malodors. Sulfides are present in odors associated with bad breath. In order to assess the malodor reduction efficacy of the compounds of the present invention, they were evaluated for their ability to reduce hexyl amine malodor and allyl disulphide by the following method.
as §1

[4] = Headspace GC/MS malodor reduction, garlic oil; settings: method of Example 4; propyl methyl disulfide and dipropyl disulfide measured as standard
Experimental: as §1, §2

[5] = Headspace GC/MS malodor reduction, hexyl amine; settings: 0.5 g test compound, 10 ul malodor in 1 l headspace jar, 60 minutes contact at 25° C.
Experimental: as §3, §1

| SMILES | % Reduction of Axilla [1] [%] | % Reduction of onion oil odor [2] [%] | % Reduction of allyl disulphide [3] [%] | % Reduction of garlic oil odor [4] [%] | % Reduction of hexyl amine [5] [%] |
| --- | --- | --- | --- | --- | --- |
| CC(OCC(=O)O)C1CCCC(C)(C)C1 (stereo not shown) [Compound B, 2-(1-(3,3-dimethylcyclohexyl)ethoxy)acetic acid] | 67.6 | 66.3 | 74.6 | 73.2 | 91.4 |
| CC(O)C(=O)OC(C)C1CCCC(C)(C)C1 (stereo not shown) [Compound A, 1-(3,3-dimethylcyclohexyl)ethyl 2-hydroxypropanoate] | 77.2 | 87.2 | 81.5 | 87.7 | 80.3 |
| CC(C)=CCCC(C)CCOC(=O)C=C(C)C (stereo not shown) [citronellyl methylcrotonate, reference compound] | 53.1 |  |  |  |  |
| CC(OCCO)C1CCCC(C)(C)C1 (stereo not shown) [Compound C, 2-(1-(3,3-dimethylcyclohexyl)ethoxy)ethanol] | 61.4 | 78.4 | 70.2 | 67.4 | 71.2 |
